Entries after “also recorded” stand apart in the source; their conditions may differ.

From publication PMC11783601, “Analogue-Sensitive Inhibition of Histone Demethylases Uncovers Member-Specific Function in Ribosomal Protein Synthesis” (Journal of the American Chemical Society, 2025) come the findings set out here.

What all share (experiment): H3K9me3 Western blot of nuclear extracts of transfected HEK293T cells
What all share (type): cell-based

Assay [1] deals with T1, full-length KDM4C-F187A (Homo sapiens, UniProt Q9H3R0, F187A).
T1 construct: we generated the full-length as mutants of the remaining KDM4s; host or cells: HEK293T
T1 sequence (Q9H3R0 whole entry F187A): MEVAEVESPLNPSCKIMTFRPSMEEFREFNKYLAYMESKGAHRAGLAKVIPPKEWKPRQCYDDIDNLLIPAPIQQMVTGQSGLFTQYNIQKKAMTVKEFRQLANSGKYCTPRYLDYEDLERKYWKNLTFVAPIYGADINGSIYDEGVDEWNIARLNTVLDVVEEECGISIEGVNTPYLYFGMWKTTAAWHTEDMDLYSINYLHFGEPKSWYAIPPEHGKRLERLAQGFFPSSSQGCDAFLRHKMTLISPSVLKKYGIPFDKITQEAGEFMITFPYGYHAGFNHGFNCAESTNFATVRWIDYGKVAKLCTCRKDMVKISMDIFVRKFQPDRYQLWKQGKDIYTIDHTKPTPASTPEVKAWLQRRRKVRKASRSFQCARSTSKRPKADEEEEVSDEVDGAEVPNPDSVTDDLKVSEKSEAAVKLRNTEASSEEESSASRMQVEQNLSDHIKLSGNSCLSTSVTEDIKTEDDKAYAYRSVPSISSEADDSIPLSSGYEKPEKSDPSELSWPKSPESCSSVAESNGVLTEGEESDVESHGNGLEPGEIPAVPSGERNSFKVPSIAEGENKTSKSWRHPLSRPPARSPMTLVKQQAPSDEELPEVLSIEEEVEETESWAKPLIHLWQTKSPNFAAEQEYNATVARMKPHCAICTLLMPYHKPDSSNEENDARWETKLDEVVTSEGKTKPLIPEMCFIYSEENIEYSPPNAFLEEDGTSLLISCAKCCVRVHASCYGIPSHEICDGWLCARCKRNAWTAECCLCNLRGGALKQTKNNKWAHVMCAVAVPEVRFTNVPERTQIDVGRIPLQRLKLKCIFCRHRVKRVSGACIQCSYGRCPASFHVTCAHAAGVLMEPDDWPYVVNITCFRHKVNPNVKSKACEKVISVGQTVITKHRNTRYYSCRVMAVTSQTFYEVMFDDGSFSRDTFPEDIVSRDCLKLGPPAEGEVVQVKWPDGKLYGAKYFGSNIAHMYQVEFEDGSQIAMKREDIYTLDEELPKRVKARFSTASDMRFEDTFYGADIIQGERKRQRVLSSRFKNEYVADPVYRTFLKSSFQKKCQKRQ
The conditions noted are these: 25-200 µM. The source says:
(§1) KDM4B and C are structurally homologous to KDM4A, and KDM4D and E have a catalytic pocket near-identical to that of KDM4A but lack the Tudor and PHD domains known to bind trimethylated lysine in histones (Figure 1B).[11] HEK293T cells were transfected with full-length wild type KDM4B-E or their respective mutants. Western blot analysis of nuclear preparations using the H3K9me3 antibody confirmed all of the proteins to be catalytically active (Figures 4G–N and S32–S35).
(§2) KDM4A mammalian expression plasmid in CMV vector was purchased from Addgene (plasmid #24180). KDM4B mammalian expression plasmid in CMV vector was purchased from Addgene (plasmid #24181). KDM4C mammalian expression plasmid in CMV vector was purchased from Addgene (plasmid #24214). KDM4D mammalian expression plasmid in pReciever vector was purchased from Genecopoia (EX-Z0917-M06.) KDME mammalian expression plasmid in pRP-EXP was designed from Vector Builder. The KDM4A-F185A, KDM4B-F186A, KDM4C -F187A, KDM4D-F189A, and KDM4E F186A mutants were generated using Quikchange Lightening Mutagenesis Kit (Agilent) according to manufacturer’s protocol and confirmed by Sanger […]
(§3) HEK293T/17 cells (ATCC) were grown in Delbucco’s Modified Eagle Medium (DMEM) (Corning) with 10% FBS at 37 °C (Corning), 5% CO2, and 95% relative humidity in a 6-well cell culture plate. When cells reached 90% confluency, 3 µg of plasmid and 6 µg lipofectamine 2000 (Invitrogen: 11668019) were incubated with 100 µL OptiMem. After 5 minutes the plasmid and lipofectamine were combined and incubated at room temperature for 20 minutes and added to the cell culture disk. Cells were returned to the incubator to grow for 4-6 hours. This was followed by treatment of compound treatment (n-octyl IOX121,22 or a specific NOG ester) at indicated concentrations and further culture for specified time. The media was removed, and cells were washed with ice cold PBS (Corning), then trypsinized with TrpLE Express (Gibco). The trypsinization reaction was quenched with DMEM 10% FBS and cells were pelleted then washed once with ice cold PBS. The nuclear extracts were generated by first resuspending the cell pellets in 700 µL nuclear isolation buffer (15 mM Tris pH 7.5, 60 mM KCl, 15 mM NaCl, 5 mM MgCl2, 1 mM CaCl2, 1mm DTT, 2 mM Na3Van, 250 mM sucrose, 1X Pierce protease inhibitor (Thermo Fisher #PIA32955), 1 mM PMSF, 0.3% NP40 diluted to volume with MilliQ H2O) and incubated on ice for 5 minutes.23 The samples were then pelleted by centrifugation at 2000 rcf for 5 minutes.
(§4) The supernatant was removed, and the pelleted nuclei were resuspended in 200 µL Pierce IP lysis buffer (Thermo Fisher #87787) containing 1X Pierce protease inhibitor and left on ice for 5 minutes. The nuclei were then sonicated at 100% amp for 5 minutes (pulsed 1 minute “on”, 20 seconds “rest”) using a Qsonica-Q700, cuphorn sonicator. The samples were pelleted once again at 2000 rcf for 5 minutes and the supernatant containing the nuclear extracts were collected. MgCl2 (1M) solution was added to each sample give a final concentration of 6mM. […]
(§5) Prism with the corresponding bars representing the mean and standard deviation of the population.
(§6) For the time dependent imaging, cells containing the transfected KDM4A mutant were identified by their HA signal. These cells were used to create a selection which was then imposed onto the respective H3K9me3 or BrdU images. The mean signal was then measured for H3K9me3 or BrdU only within the cells expressing the KDM4A mutant. To compare changes in H3K9me3 or BrdU between trials, the quantification values were normalized to the mean signal at t=0. The normalized, mean signal and error for H3K9me3 or BrdU were then plotted in GraphPad Prism.
(§7) 21. General protocol for Western blotting
(§8) Assay samples were mixed with appropriate volume of 4X Laemmli Dye (Bio-Rad), heated at 95 °C for 5 minutes and loaded onto 4–12% Criterion™ XT Bis-Tris protein gels (Bio-Rad #3450123) or in-house prepared SDS-polyacrylamide gel and subjected to electrophoresis […]

The target of assay [2] is T2, full-length KDM4B-F186A (Homo sapiens, UniProt O94953, F186A).
T2 construct: we generated the full-length as mutants of the remaining KDM4s; host or cells: HEK293T
T2 sequence (O94953 1-1096 F186A): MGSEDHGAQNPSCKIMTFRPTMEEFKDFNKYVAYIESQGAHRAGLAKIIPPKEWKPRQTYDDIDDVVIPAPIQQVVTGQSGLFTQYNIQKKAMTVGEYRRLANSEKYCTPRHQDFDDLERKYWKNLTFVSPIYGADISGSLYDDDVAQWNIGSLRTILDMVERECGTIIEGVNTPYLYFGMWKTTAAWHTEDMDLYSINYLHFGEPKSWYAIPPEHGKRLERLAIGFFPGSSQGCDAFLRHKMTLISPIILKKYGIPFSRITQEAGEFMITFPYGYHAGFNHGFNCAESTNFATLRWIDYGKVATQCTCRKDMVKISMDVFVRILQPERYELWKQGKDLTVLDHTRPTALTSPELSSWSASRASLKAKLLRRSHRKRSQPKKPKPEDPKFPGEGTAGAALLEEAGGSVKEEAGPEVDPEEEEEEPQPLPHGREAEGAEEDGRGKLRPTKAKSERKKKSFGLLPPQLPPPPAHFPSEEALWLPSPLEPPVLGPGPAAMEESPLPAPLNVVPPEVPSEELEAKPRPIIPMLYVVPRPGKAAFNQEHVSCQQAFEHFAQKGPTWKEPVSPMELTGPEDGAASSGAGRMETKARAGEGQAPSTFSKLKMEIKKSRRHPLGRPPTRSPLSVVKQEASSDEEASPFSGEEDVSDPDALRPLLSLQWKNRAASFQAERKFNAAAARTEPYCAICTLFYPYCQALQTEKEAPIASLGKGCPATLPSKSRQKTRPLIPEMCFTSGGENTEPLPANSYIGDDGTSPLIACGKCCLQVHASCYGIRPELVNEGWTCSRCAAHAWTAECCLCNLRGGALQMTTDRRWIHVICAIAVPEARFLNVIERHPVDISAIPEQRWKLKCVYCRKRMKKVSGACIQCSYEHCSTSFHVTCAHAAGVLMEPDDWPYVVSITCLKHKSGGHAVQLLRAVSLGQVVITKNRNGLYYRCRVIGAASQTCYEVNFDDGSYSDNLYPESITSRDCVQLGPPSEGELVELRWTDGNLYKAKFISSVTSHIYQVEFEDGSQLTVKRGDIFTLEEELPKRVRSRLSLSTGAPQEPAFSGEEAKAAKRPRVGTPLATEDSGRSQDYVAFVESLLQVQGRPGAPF
Conditions: for inhibition of KDM4B-F186A (asKDM4B) H3K9me3 demethylation: 10 μM concentration; for inhibition of KDM4B-F186A H3K9me3 demethylation, dose-dependent: 10, 20 µM.
Excerpt: as §1, §2, §3, §4, §5, §6, §7, §8

Assay [3] addresses T3, full-length KDM4E-F186A (Homo sapiens, UniProt B2RXH2, F186A).
T3 construct: we generated the full-length as mutants of the remaining KDM4s; host or cells: HEK293T
The conditions noted are these: 25-200 µM.
Excerpt: as §1, §2, §3, §4, §5, §6, §7, §8

The target of assay [4] is T4, full-length KDM4D-F189A (Homo sapiens, UniProt Q6B0I6, F189A).
T4 construct: we generated the full-length as mutants of the remaining KDM4s; host or cells: HEK293T
T4 sequence (Q6B0I6 whole entry F189A): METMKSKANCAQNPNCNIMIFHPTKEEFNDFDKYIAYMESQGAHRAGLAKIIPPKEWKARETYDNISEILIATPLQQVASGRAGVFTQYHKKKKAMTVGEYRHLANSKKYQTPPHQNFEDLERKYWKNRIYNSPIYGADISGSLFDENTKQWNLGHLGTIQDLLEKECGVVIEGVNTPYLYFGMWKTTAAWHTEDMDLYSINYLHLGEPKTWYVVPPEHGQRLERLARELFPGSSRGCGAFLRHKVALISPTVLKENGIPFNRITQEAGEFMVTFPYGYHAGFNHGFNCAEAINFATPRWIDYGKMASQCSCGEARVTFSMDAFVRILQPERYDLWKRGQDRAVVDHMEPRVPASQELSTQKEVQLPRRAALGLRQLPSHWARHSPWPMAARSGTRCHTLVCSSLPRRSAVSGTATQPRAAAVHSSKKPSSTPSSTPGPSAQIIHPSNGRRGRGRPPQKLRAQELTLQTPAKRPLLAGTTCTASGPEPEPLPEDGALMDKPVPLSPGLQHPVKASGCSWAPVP
The conditions noted are these: 25-200 µM.
Excerpt: as §1, §2, §3, §4, §5, §6, §7, §8

T3 sequence (B2RXH2 whole entry F186A): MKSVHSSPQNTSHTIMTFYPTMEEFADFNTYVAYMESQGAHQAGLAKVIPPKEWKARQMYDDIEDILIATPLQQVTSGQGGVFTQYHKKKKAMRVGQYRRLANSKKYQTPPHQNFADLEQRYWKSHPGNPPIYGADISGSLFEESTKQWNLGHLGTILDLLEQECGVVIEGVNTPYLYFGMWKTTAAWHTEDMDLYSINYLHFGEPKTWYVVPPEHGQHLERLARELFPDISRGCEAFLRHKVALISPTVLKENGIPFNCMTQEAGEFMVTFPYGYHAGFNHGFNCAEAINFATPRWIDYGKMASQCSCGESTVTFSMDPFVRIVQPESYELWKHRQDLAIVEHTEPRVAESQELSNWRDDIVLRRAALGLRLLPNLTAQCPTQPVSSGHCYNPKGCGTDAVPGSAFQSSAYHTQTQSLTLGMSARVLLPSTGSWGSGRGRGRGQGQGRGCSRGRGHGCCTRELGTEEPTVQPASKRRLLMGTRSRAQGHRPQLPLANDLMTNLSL

For the molecule `CCCCCCCCOC(=O)C(=O)NC(CC(C)C)C(=O)O` [6A, L-Leu octyl-ester NOG], the “inhibition of KDM4C-F187A H3K9me3 demethylation” value in assay [1] was “Dose-dependent inhibition; also recorded: significantly reduced”. Further, in assay [2], the “inhibition of KDM4B-F186A (asKDM4B) H3K9me3 demethylation” value was “robust inhibition” and the “inhibition of KDM4B-F186A H3K9me3 demethylation, dose-dependent” value is “Dose-dependent inhibition; also recorded: significantly reduced”. Further, the “inhibition of KDM4E-F186A H3K9me3 demethylation” value in assay [3] was “Dose-dependent inhibition; also recorded: significantly reduced”. In assay [4], the “inhibition of KDM4D-F189A H3K9me3 demethylation” value is listed as “Dose-dependent inhibition; also recorded: significantly reduced”.

As for `CC(C)CC(NC(=O)C(=O)OCc1cccc(C(F)(F)F)c1)C(=O)O` [6B, L-Leu TFMB-ester NOG], the “inhibition of KDM4C-F187A H3K9me3 demethylation” value in assay [1] is on record as “significantly reduced”. Besides, in assay [2], the “inhibition of KDM4B-F186A (asKDM4B) H3K9me3 demethylation” value is listed as “robust inhibition” and the “inhibition of KDM4B-F186A H3K9me3 demethylation, dose-dependent” value is “Dose-dependent inhibition; also recorded: significantly reduced”. Further, the “inhibition of KDM4E-F186A H3K9me3 demethylation” value in assay [3] is listed as “significantly reduced”. In addition, the “inhibition of KDM4D-F189A H3K9me3 demethylation” value in assay [4] is listed as “Inhibition; also recorded: significantly reduced”.
